In patent US20100048555A1, “IMIDAZOTHIAZOLE DERIVATIVES AS MARK INHIBITORS” (priority 2006, published 2010) one finds IC50 data, which are given here for twelve compounds.

One assay deals with T1, MARK3 (Homo sapiens, UniProt P27448).
T1 construct: purchased University of Dundee
T1 sequence (P27448 whole entry, species assumed): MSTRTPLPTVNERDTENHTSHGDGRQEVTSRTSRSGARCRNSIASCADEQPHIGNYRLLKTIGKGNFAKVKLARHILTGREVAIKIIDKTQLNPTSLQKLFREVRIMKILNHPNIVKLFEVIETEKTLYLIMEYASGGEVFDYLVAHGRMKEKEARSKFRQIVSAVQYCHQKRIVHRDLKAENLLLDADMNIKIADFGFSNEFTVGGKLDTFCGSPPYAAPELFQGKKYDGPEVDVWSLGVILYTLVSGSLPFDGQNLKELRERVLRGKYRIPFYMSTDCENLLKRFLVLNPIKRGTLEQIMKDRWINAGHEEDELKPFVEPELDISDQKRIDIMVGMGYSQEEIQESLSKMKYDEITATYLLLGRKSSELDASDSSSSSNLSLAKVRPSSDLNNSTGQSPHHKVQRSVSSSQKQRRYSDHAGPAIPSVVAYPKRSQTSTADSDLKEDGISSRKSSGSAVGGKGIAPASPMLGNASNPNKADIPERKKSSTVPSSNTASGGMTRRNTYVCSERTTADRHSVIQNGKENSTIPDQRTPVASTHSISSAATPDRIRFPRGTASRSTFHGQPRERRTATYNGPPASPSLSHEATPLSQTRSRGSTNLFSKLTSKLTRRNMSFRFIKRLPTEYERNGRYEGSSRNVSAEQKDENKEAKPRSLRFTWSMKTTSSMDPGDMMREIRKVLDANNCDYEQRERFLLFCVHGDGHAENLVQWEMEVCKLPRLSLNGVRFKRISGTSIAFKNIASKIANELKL
In words: MARK 3 Assay (HTRF, Cdc25C biotinylated peptide substrate). Type of assay: biochemical. Conditions: recombinant MARK3 enzyme, 10 μM ATP, 1 μM peptide substrate. As to the method: MARK3 activity was assayed in vitro using a Cdc25C biotinylated peptide substrate (Cell Signalling Technologies). The phosphopeptide product was quantitated using a Homogenous Time-Resolved Fluorescence (HTRF) assay system (Park et al., 1999, Anal. Biochem. 269:94-104). The reaction mixture contained 50 mM HEPES/Tris-HCl, pH 7.4; 10 mM NaCl, 5 mM MgCl2, 0.2 mM NaVO4, 5 mM β-glycerol phosphate, 0.1% Tween-20, 2 mM dithiothreitol, 0.1% BSA, 10 μM ATP, 1 μM peptide substrate, and 10 nM recombinant MARK3 enzyme (University of Dundee) in a final volume of 12 μl. The buffer additionally contained protease inhibitor cocktail (Roche EDTA-free, 1 tab per 50 ml). The kinase reaction was incubated for 2 hours at 25° C., and then terminated with 3 μl Stop/Detection Buffer (50 mM HEPES, pH 7.0, 16.6 mM EDTA, 0.5M KF, 0.1% Tween-20, 0.1% BSA, 2 μg/ml SLX^ent 665 (CISBIO), and 2 μg/ml Eu^3+ cryptate label antibody (CISBIO)). The reaction was allowed to equilibrate overnight at 0° C., and relative fluorescent units were read on an HTRF enabled plate reader (e.g. TECAN GENios Pro). Inhibitor compounds were assayed in the reaction described above to determine compound IC50s. Aliquots of compound dissolved in DMSO were added to the reaction wells in a third-log dilution series covering a range of 1 nM to 10 μM. Relative phospho substrate formation, read as HTRF fluorescence units, was measured over the range of compound concentrations and a titration curve generated.
Background: In TR-FRET formats the signal depends on donor and acceptor labels being close together.
For orientation: IC50 means the concentration needed to halve the response being measured. With `CN1CCN(Cc2ccc(C(=O)Nc3ncn4c(C(F)(F)F)csc34)cc2)CC1` [Example 18, 4-[(4-methylpiperazin-1-yl)methyl]-N-[3-(trifluoromethyl)imidazo[5,1-b][1,3]thiazol-7-yl]benzamide], the IC50 was in the range of 100 to 500 nM.

As to `O=C(Nc1ncn2c(C(F)(F)F)csc12)c1ccc(CN2CCCCC2)cc1` [Example 17, 4-(Piperidin-1-ylmethyl)-N-[3-(trifluoromethyl)imidazo[5,1-b][1,3]thiazol-7-yl]benzamide], the IC50 fell in the range of 100 to 500 nM.

As for `O=C(Nc1ncn2c(C(F)(F)F)csc12)c1ccc(N2CCOCC2)cc1` [Example 9], the IC50 is 100 to 500 nM.

Turning to `CN1CCN(c2ccc(C(=O)Nc3ncn4c(C(F)(F)F)csc34)cc2)CC1` [Example 8, 4-(4-Methylpiperazin-1-yl)-N-[3-(trifluoromethyl)imidazo[5,1-b][1,3]thiazol-7-yl]benzamide], the IC50 was under 100 nM.

Turning to `O=C(Nc1ncn2c(C(F)(F)F)csc12)c1ccc(Cl)cc1` [Example 7, 4-Chloro-N-[3-(trifluoromethyl)imidazo[5,1-b][1,3]thiazol-7-yl]benzamide], the IC50 lay within 100 to 500 nM.

As to `O=C(Nc1ncn2c(C(F)(F)F)csc12)c1ccc(CO)cc1` [Example 14, 4-(Hydroxymethyl)-N-[3-(trifluoromethyl)imidazo[5,1-b][1,3]thiazol-7-yl]benzamide], the IC50 lay in the range of 100 to 500 nM.

Turning to `O=C(Nc1ncn2c(C(F)(F)F)csc12)c1ccc(F)cc1` [Example 1, 4-Fluoro-N-[3-(trifluoromethyl)imidazo[5,1-b][1,3]thiazol-7-yl]benzamide], the IC50 lay in the range of 100 to 500 nM.

With `O=C(Nc1ncn2c(C(F)(F)F)csc12)c1ccc(CN2CCOCC2)cc1` [Example 16, 4-(Morpholin-4-ylmethyl)-N-[3-(trifluoromethyl)imidazo[5,1-b][1,3]thiazol-7-yl]benzamide], the IC50 was 100 to 500 nM.

Turning to `O=C(Nc1ncn2c(C(F)(F)F)csc12)c1ccc(OCCN2CCCCC2)cc1` [Example 12, 4-(2-Piperidin-1-ylethoxy)-N-[3-(trifluoromethyl)imidazo[5,1-b][1,3]thiazol-7-yl]benzamide], the IC50 is under 100 nM.

Still in this assay, the particulars now being: recombinant MARK3 enzyme, 10 μM ATP, range given with mixed units (500 nM to 1 μM), units kept in the value.
With `O=C(Nc1ncn2c(C(F)(F)F)csc12)c1cccc(OCCN2CCCCC2)c1` [Example 13, 3-(2-Piperidin-1-ylethoxy)-N-[3-(trifluoromethyl)imidazo[5,1-b][1,3]thiazol-7-yl]benzamide], the IC50 was 500 to 1000 nM.

In the case of `O=C(Nc1ncn2c(C(F)(F)F)csc12)c1ccc(O)cc1` [Example 2, 4-Hydroxy-N-[3-(trifluoromethyl)imidazo[5,1-b][1,3]thiazol-7-yl]benzamide], the IC50 was 500 to 1000 nM.

Consider `O=C(Nc1ncn2c(C(F)(F)F)csc12)c1ccc(CO)cc1` [Example 14, 4-(Hydroxymethyl)-N-[3-(trifluoromethyl)imidazo[5,1-b][1,3]thiazol-7-yl]benzamide], for which the IC50 lay in the range of 500 to 1000 nM.

`CN1CCN(c2ccc(C(=O)Nc3ncn4c(C(F)(F)F)csc34)cn2)CC1` [Example 19, 6-(4-methylpiperazin-1-yl)-N-[3-(trifluoromethyl)imidazo[5,1-b][1,3]thiazol-7-yl]nicotinamide]: the half-inhibitory concentration (IC50) was in the range of 500 to 1000 nM.
